# Results published in ChEMBL document CHEMBL4351033, “Heterocyclic β-keto sulfide derivatives of carvacrol: Synthesis and copper (II) ion reducing capacity” (Bioorg Med Chem Lett, 2019).
# The source made the active and inactive calls. The rule behind the calls is not given here.
# Experiment: Antioxidant activity assessed as reduction of Cu2+ in bis-neocuproine-Cu2+ complex to bis-neocuproine-Cu+ complex measured as trolox equivalent antioxidant capacity incubated for 30 mins by CUPRAC assay
# Format: functional
SMILES,Ratio,Activity
Cc1ccc(C(C)C)cc1O,0.87,
COc1cc(C(C)C)c(C(=O)CSc2ccccn2)cc1C,0.59,
COc1cc(C(C)C)c(C(=O)CSc2nnc(N)s2)cc1C,1.4,
COc1cc(C(C)C)c(C(=O)CSc2nnc(-c3ccccn3)o2)cc1C,1.59,
COc1cc(C(C)C)c(C(=O)CSc2ncnc3[nH]cnc23)cc1C,1.32,
COc1cc(C(C)C)c(C(=O)CSc2nnc(C)s2)cc1C,1.73,
COc1cc(C(C)C)c(C(=O)CSc2nc3ccccc3[nH]2)cc1C,1.21,
COc1cc(C(C)C)c(C(=O)CSc2ccccc2)cc1C,0.8,
COc1cc(C(C)C)c(C(=O)CSc2nnc(N)[nH]2)cc1C,1.62,
COc1cc(C(C)C)c(C(=O)CSc2nnc(-c3ccccc3)o2)cc1C,1.34,
COc1cc(C(C)C)c(C(=O)CSc2nnc(-c3cccnc3)o2)cc1C,0.68,
COc1cc(C(C)C)c(C(=O)CSc2nc3ccccc3s2)cc1C,1.26,
COc1cc(C(C)C)c(C(=O)CSc2ccncc2)cc1C,0.47,
COc1cc(C(C)C)c(C(=O)CSc2nc3ccccc3o2)cc1C,1.47,
COc1cc(C(C)C)c(C(=O)CSc2nnc(-c3ccccc3)[nH]2)cc1C,1.02,
COc1cc(C(C)C)c(C(=O)CS(=O)(=O)c2ccccc2)cc1C,,inactive
O=C1O[C@H]([C@@H](O)CO)C(O)=C1O,0.85,
COc1cc(C(C)C)c(C(=O)CSc2ncccn2)cc1C,0.39,
COc1cc(C(C)C)c(C(=O)CSc2nnc(-c3ccncc3)o2)cc1C,0.95,

# Experiment: Metal coordinating activity assessed as compound-copper coordination at 12.5 to 37.5 uM incubated for 0.5 to 1 hr in presence of 2.5 mM CuCl2 by UV-Visible spectrophotometric analysis
# Format: functional
row,SMILES,Activity
1,COc1cc(C(C)C)c(C(=O)CSc2nnc(-c3ccccn3)o2)cc1C,inactive
